Where a name gives a salt, the structure may show the parent alone.
Experiments:
[1] = test system: Rats, pylorus portion ligated (gastric secretion); experiment: Gastric secretion inhibitory activity in pylorus-ligated rats; type: in vivo, rat
Description: Rats weighing 200 to 250 g (8 rats per group) which have been fasting for 24 hours before testing were subjected to abdominal section under ether anesthesia, and the pylorus portion was ligated. Immediately after ligation, the test compound was administered into the duodenum as a suspension in a 5 wt% aqueous gum arabic at a volume of 2 ml/kg. The rats were sacrificed after 6 hours, and the stomach was extracted. The gastric juice was collected to determine the volume thereof, and the acidity of the gastic juice was titrated to a pH 7.0 with a 0.02N aqueous sodium hydroxide solution using a pH meter. The acid secretion amount per 6 hours (μEq/6 h) was calculated by (volume of gastric juice×acidity of gastric juice).

[2] = test system: Donryu male rats, indomethacin ulcer; experiment: Anti-ulcer activity, indomethacin-induced ulcer; type: in vivo, rat; conditions: for Ulcer Index Inhibition / Ulcer Index: indomethacin 25 mg/kg; for Anti-ulcer activity (in words): Table 4
Description: The test compound was administered orally to Donryu male rats weighing 240 to 300 g (7 rats per group) which have been fasting for 24 hours before testing, and, after 30 minutes, indomethacin was administered orally to the rats at a dose of 25 mg/kg. The rats were then maintained for 7 hours without feeding water and foods and then sacrificed. The stomach was extracted and fixed by infusing 7.5 ml of a 2% formalin solution into the stomach. The stomach was incised along the greater curvature thereof, and length (mm) of each ulcer generated in gastric glands was determined. The total length of the ulcer per rat was expressed in terms of an ulcer index.
In this experiment, the test compound was suspended in a 0.5% aqueous gum arabic and administered at a volume of 5 ml/kg. Indomethacin (manufacturedby Sigma Co., Ltd.) was administered as a 0.5 wt% aqueous suspension in sodium carboxymethyl cellulose at a volume of 5 ml/kg. As a control, a 0.5 wt% suspension of aqueous gum arabic was orally administered at a volume of 5 ml/kg.

[3] = test system: unanesthetized spontaneously hypertensive rats; experiment: Anti-hypertensive activity, systolic blood pressure, tail cuff method; type: in vivo, rat; conditions: 10 mg/kg oral
Description: (§1) The anti-hypertensive activity of the compounds was determined by the tail cuff method using unanesthetized spontaneously hypertensive rats weighing 300 to 350 g (21 to 25 week old). In this experiment, the systolic blood pressure was determined by the bloodless method using a hemodynamometer. The heart rate was determined simultaneously using a sphygmometer connected to the pulse output. After rats were placed under condition of 40° C. for 10 minutes, the blood pressure was determined by holding the rats in a holder. The test compounds were suspended in a 0.5 wt% aqueous gum arabic. Hydralazine hydrochloride used as a comparative agent was administered as an aqueous solution thereof. The volume of oral administration was 0.5 ml per 100 g of body weight.

[4] = test system: unanesthetized spontaneously hypertensive rats; experiment: Heart rate determined simultaneously with blood pressure (sphygmometer connected to the pulse output); type: in vivo, rat; conditions: for Changes in Heart Rate: 10 mg/kg oral
Description: as §1

[5] = test system: ddY male mice, reserpine-induced immobility; experiment: Activity on reserpine-induced immobility (open-field method); type: in vivo, mouse; conditions: reserpine 2 mg/kg, total of 1-min counts at 15, 30, 45, 60 min, ***p < 0.001
Description: Reserpine was administered intraperitoneally to ddY male mice (4 week old) at a dose of 2 mg/kg, and, after 18 to 20 hours, the test compound was administered intraperitoneally to the mice. Thereafter, the ambulation (the number of times of the animal crossed the demarcation line) of the mice was counted for a period of 1 minute at 15, 30, 45 and 60 minutes after the administration of the test compound, respectively, according to the open-field method. The total number of ambulation determined at 4 times in each mouse and compared with that of the control.

[6] = test system: Rats with unilateral 6-hydroxydopamine lesion of the substantia nigra; experiment: Rotational activity in rats with unilateral 6-hydroxydopamine lesion of the substantia nigra; type: in vivo, rat
Description: Rats under pentobarbital sodium anesthesia (50 mg/kg, i.p.) were fixed on an apparatus for fixing brain, and 6-hydroxydopamine (8 μg/4 μl) was injected in the substantia nigra (A:3.0, L:2.6, D:7.8) according to Pellegrino & Cushman's atlas. Seven days after the injection of 6-hydroxydopamine, apomorphine was administered subcutaneously at a dose of 0.25 mg/kg, and the rats showing […] rotating movement to one side opposite to the destroyed side were selected. After 7 days, the test compound was administered intraperitoneally and, thereafter, rotating movement of the rats was observed over 1 minute at an interval of 5 minutes during a period of 60 minutes.

human = conditions: in human, side-effect; cited from earlier work
[7] = J. Affect. Disord., Vol. 1, 173 (1979); cited from earlier work
[8] = test system: ddY male mice, KCN-induced anoxia; experiment: Activity on KCN-induced anoxia in mice; type: in vivo, mouse
[9] = 100 mg/kg into the duodenum, 6 hours
[10] = 10 mg/kg into the duodenum, 6 hours

In the case of `CN=C(NC#N)NCCSCc1nc[nH]c1C` [Cimetidine, 1-cyano-2-methyl-3-[2-[[(5-methylimidazole-4-yl)methyl]thio]ethyl]guanidine, reference compound], the “Volume of Acid Secreted” value ([1]; 100 mg/kg into the duodenum) is reported as 142.5 ± 60.5 μEq/6 h, the “Volume of Acid Secreted, Inhibition” value [1, 9] is reported as 66.2% and the “Volume of Gastric Juice, Inhibition” value [1, 9] is reported as 60.2%. For the same compound, the “Ulcer Index Inhibition” value ([2]; 100 mg/kg oral) was 53.7% and the “Ulcer Index” value ([2]; 100 mg/kg oral, **p < 0.01) was 28.3 ± 8.4 mm.

With `NC[C@H]1CC[C@H](C(=O)Oc2ccc(CCC(=O)O)cc2)CC1` [Cetraxate, p-hydroxyhydrocinnamic acid trans-(4-aminomethyl)cyclohexane carboxylate] the “Ulcer Index Inhibition” value ([2]; 100 mg/kg oral) was 14.9%, the “Ulcer Index” value ([2]; 100 mg/kg oral, **p < 0.01) was 52.1 ± 8.7 mm and the “Anti-ulcer activity (in words)” value [2] was “did not show any significant anti-ulcer activity”.

In the case of `CN1C[C@H](Cn2cncn2)C[C@@H]2c3cccc4[nH]cc(c34)C[C@H]21` [Example 6, 1-(6-Methylergolin-8β-ylmethyl)-1,2,4-triazole], the “Changes in Systolic Blood Pressure” value ([3]; 1 hr after administration) is reported as -64 Δ mmHg, the “Changes in Systolic Blood Pressure” value ([3]; 2 hrs after administration) is reported as -67 Δ mmHg and the “Changes in Systolic Blood Pressure” value ([3]; 4 hrs after administration) is reported as -62 Δ mmHg. For the same compound, the “Changes in Systolic Blood Pressure” value ([3]; 6 hrs after administration) was -65 Δ mmHg, the “Changes in Systolic Blood Pressure” value ([3]; 24 hrs after administration) was -14 Δ mmHg and the “Changes in Heart Rate” value ([4]; 1 hr after administration) was -8 Δ/min. The “Changes in Heart Rate” value ([4]; 2 hrs after administration) was -30 Δ/min, the “Changes in Heart Rate” value ([4]; 4 hrs after administration) was -33 Δ/min and the “Changes in Heart Rate” value ([4]; 6 hrs after administration) was -21 Δ/min. The “Changes in Heart Rate” value ([4]; 24 hrs after administration) was -10 Δ/min, the Ambulation ([5]; 10 mg/kg i.p., n = 6) was 198.8 ± 32.2 and the “Duration of increase in spontaneous movement and sniffing” value ([6]; 10 mg/kg i.p.) was “more than 5 hours”. The “Number of Rotating Movement over 60 min.” value ([6]; 10 mg/kg i.p.) was 0 and the “Spontaneous movement and sniffing” value ([6]; 10 mg/kg i.p.) was “Increase in spontaneous movement and sniffing occurred markedly”.

With `CC(C)=CCOc1ccc(/C=C/C(=O)c2ccc(OCC=C(C)C)cc2OCC(=O)O)cc1` [Sofalcone] the “Ulcer Index Inhibition” value ([2]; 100 mg/kg oral) was 3.4%, the “Ulcer Index” value ([2]; 100 mg/kg oral, **p < 0.01) was 59.2 ± 10.5 mm and the “Anti-ulcer activity (in words)” value [2] was “did not show any significant anti-ulcer activity”.

With `NNc1nncc2ccccc12` [Hydralazine Hydrochloride, reference compound] the “Changes in Systolic Blood Pressure” value ([3]; 1 hr after administration) was -47 Δ mmHg, the “Changes in Systolic Blood Pressure” value ([3]; 2 hrs after administration) was -52 Δ mmHg and the “Changes in Systolic Blood Pressure” value ([3]; 4 hrs after administration) was -67 Δ mmHg. For the same compound, the “Changes in Systolic Blood Pressure” value ([3]; 6 hrs after administration) was -41 Δ mmHg, the “Changes in Systolic Blood Pressure” value ([3]; 24 hrs after administration) was -22 Δ mmHg and the “Changes in Heart Rate” value ([4]; 1 hr after administration) was 65 Δ/min. The “Changes in Heart Rate” value ([4]; 2 hrs after administration) was 66 Δ/min, the “Changes in Heart Rate” value ([4]; 4 hrs after administration) was 75 Δ/min and the “Changes in Heart Rate” value ([4]; 6 hrs after administration) was 64 Δ/min. For the same compound, the “Changes in Heart Rate” value ([4]; 24 hrs after administration) was 44 Δ/min, the “Heart rate effect (in words)” value ([4]; Table 2) was “a marked increase in heart rate” and the Tachycardia (human) was “exhibited tachycardia in human as one of side-effects”.

In the case of `CN1CCc2cccc3c2[C@H]1Cc1ccc(O)c(O)c1-3` [Apomorphine Hydrochloride, reference compound], the Ambulation ([5]; 3 mg/kg i.p., n = 10) is reported as 71.0 ± 7.0 and the “Number of Rotating Movement over 60 min.” value ([6]; 0.5 mg/kg i.p.) is reported as 147.

In the case of `CC(C)C[C@H]1C(=O)N2CCC[C@H]2[C@]2(O)O[C@](NC(=O)[C@@H]3C=C4c5cccc6[nH]c(Br)c(c56)C[C@H]4N(C)C3)(C(C)C)C(=O)N12` [Bromocriptine Methanesulfonate], the Ambulation ([5]; 10 mg/kg i.p., n = 6) is given as 36.7 ± 12.3 and the “Anti-depressive activity (known)” value [7] is given as “has been known to have an anti-depressive activity”.

For `CN1C[C@H](CN2CCOC2=O)C[C@@H]2c3cccc4[nH]cc(c34)C[C@H]21` [Example 2, 3-(6-Methylergolin-8β-ylmethyl)oxazolidin-2-one], the “Changes in Systolic Blood Pressure” value ([3]; 1 hr after administration) was -64 Δ mmHg, the “Changes in Systolic Blood Pressure” value ([3]; 2 hrs after administration) was -36 Δ mmHg and the “Changes in Systolic Blood Pressure” value ([3]; 4 hrs after administration) was -37 Δ mmHg. For the same compound, the “Changes in Systolic Blood Pressure” value ([3]; 6 hrs after administration) was -52 Δ mmHg, the “Changes in Systolic Blood Pressure” value ([3]; 24 hrs after administration) was -11 Δ mmHg and the “Changes in Heart Rate” value ([4]; 1 hr after administration) was -39 Δ/min. The “Changes in Heart Rate” value ([4]; 2 hrs after administration) was -74 Δ/min, the “Changes in Heart Rate” value ([4]; 4 hrs after administration) was -58 Δ/min and the “Changes in Heart Rate” value ([4]; 6 hrs after administration) was -56 Δ/min. For the same compound, the “Changes in Heart Rate” value ([4]; 24 hrs after administration) was -23 Δ/min, the “Volume of Acid Secreted, Inhibition” value [1, 10] was 70.8% and the “Volume of Gastric Juice, Inhibition” value [1, 10] was 63.3%. The “Total Acidity” value ([1]; 10 mg/kg into the duodenum, 6 hours, *p < 0.05) was 61.4 ± 7.5 mEq/liter, the “Ulcer Index Inhibition” value ([2]; 10 mg/kg oral) was 92.7% and the “Ulcer Index” value ([2]; 10 mg/kg oral, ***p < 0.001) was 4.4 ± 2.3 mm. The “Survival Time” value ([8]; 10 mg/kg i.p., KCN 2.5 mg/kg i.v., **p < 0.01, ***p < 0.001, survivors counted as 180 sec) was 144.4 ± 17.6 s, the “Number of Survived Mice/Total Mice” value ([8]; 10 mg/kg i.p., KCN 2.5 mg/kg i.v., survived longer than 3 minutes) was 5/8 and the “Brain protection activity (in words)” value ([8]; Table 5) was “exhibited the activity higher that that of dihydroergotoxine methanesulfonate”.

— US4713457A, “Ergoline derivatives and acid addition salts thereof” (priority 1985, dated 1987)
